Source: paper PMC4195764, “Molecular mechanism of ligand recognition by membrane transport protein, Mhp1” (The EMBO Journal, 2014)

Experiments:
Mhp1 [1] = molecular target: T1, Mhp1 (Microbacterium maritypicum, UniProt D6R8X8); test: inhibition of […]-L-IMH uptake into E. coli cells expressing Mhp1; format: cell-based; set-up: gene hyuP; full-length membrane protein expressed in E. coli BL21(DE3) from pSHP11; settings: read-out: Apparent IC5_0
T1 sequence (D6R8X8 1-489): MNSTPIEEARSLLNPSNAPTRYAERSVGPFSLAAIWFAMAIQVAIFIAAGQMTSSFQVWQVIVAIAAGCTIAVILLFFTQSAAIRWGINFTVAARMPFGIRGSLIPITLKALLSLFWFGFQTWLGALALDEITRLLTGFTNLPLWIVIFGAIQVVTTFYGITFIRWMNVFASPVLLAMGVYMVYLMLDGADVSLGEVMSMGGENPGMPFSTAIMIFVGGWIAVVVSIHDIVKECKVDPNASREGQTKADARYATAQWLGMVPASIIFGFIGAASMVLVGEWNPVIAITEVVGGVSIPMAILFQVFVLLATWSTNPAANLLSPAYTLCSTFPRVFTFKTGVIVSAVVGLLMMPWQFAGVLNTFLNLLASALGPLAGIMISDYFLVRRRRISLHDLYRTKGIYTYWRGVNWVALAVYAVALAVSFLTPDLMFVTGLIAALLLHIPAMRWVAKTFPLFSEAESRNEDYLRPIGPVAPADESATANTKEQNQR

Mhp1 [2] = molecular target: T1, Mhp1; test: stopped-flow tryptophan spectrophotofluorimetry; format: binding; set-up: gene hyuP; full-length membrane protein expressed in E. coli BL21(DE3) from pSHP11; GFP-fusion purified for crystallography (details in supplement); settings: read-out: Apparent Kd
Excerpt: stopped-flow tryptophan spectrophotofluorimetry on Mhp1

Mhp1 [3] = molecular target: T2, Mhp1 (Microbacterium maritypicum, UniProt D6R8X8, L363A); test: uptake of […]-L-NMH into E. coli cells expressing mutant; format: cell-based; settings: 50 μM labelled compound, 150 mM NaCl, pH 6.6, 15 s; not transported by wild type
T2 construct: gene hyuP; full-length membrane protein expressed in E. coli BL21(DE3) from pSHP11; GFP-fusion purified for crystallography (details in supplement)
T2 sequence (D6R8X8 whole entry L363A, the tested form may be a part): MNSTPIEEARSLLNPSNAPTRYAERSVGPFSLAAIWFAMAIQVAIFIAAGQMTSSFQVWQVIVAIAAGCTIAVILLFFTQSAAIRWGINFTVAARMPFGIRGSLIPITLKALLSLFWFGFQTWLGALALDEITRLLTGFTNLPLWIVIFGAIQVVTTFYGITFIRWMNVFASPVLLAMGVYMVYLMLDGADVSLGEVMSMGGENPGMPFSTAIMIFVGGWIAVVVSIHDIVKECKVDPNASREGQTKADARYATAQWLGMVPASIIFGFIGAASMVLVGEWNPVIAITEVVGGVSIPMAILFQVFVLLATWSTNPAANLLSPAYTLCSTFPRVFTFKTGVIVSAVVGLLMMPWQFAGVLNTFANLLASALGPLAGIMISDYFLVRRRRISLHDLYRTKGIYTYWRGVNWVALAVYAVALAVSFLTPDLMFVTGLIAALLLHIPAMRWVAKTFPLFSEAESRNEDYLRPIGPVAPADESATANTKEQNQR

Compound	IC50 (Mhp1 [1]) [µM]	Kd (Mhp1 [2]) [µM]	uptake of 14C-L-NMH into E. coli cells expressing mutant (Mhp1 [3])
O=C1NC(=O)[C@@H](Cc2ccccc2)N1 [D-BH]		130 ± 10	
O=C1NC(=O)[C@@H](Cc2c[nH]c3ccccc23)N1 [D-IMH]		20.6 ± 3.8	
O=C1NC(=O)[C@H](Cc2ccccc2)N1 [L-BH, (5S)-5-benzylimidazolidine-2,4-dione]	945 ± 1.1	36 ± 1.4	

Now those with a lower Kd (Mhp1 [2]), led by results:

IC50 (Mhp1 [1]) [µM]	Kd (Mhp1 [2]) [µM]	Compound	uptake of 14C-L-NMH into E. coli cells expressing mutant (Mhp1 [3])
38.8 ± 1.1	2 ± 0.2	O=C1NC(=O)C(=Cc2cccc(Br)c2)N1 (stereo in doubt) [BVH, (5E)-5-[(3-bromophenyl)methylidene] imidazolidine-2,4-dione]	
17.1 ± 1.1	1.8 ± 0.3	O=C1NC(=O)[C@@H](Cc2ccc3ccccc3c2)N1 [D-NMH]	
119.2 ± 1.1	19 ± 2	O=C1NC(=O)[C@H](Cc2c[nH]c3ccccc23)N1 [L-IMH, (5S)-5-(1H-indol-3-ylmethyl)imidazolidine-2,4-dione]	
14.9 ± 1.1	3.6 ± 0.8	O=C1NC(=O)[C@H](Cc2ccc3ccccc3c2)N1 [L-NMH, (5S)-5-(naphthalen-2-ylmethyl)imidazolidine-2,4-dione]	when Leu363 was mutated to an alanine, uptake was restored
